Results as given in patent US20200270237A1 (priority 2017, published 2020).
Read-outs that look alike come from different tables or passages of the source.

Biological target: Human α2δ-1 Subunit of Cav2.2 Calcium Channel (Homo sapiens, UniProt P54289)
Assay: biochemical
Assay type: binding
[1] = read-out: Ki (nM) alpha2delta Hum
[2] = Table 1, human α2δ-1 enriched membranes, 15 nM [3H]-Gabapentin, read-out: Ki (nM) alpha2delta Hum
[3] = Table 2 (dual compounds), human α2δ-1 enriched membranes, 15 nM [3H]-Gabapentin, read-out: Ki (nM) alpha2delta Hum

Human α2δ-1 Subunit of Cav2.2 Calcium Channel, sequence (P54289 25-1103): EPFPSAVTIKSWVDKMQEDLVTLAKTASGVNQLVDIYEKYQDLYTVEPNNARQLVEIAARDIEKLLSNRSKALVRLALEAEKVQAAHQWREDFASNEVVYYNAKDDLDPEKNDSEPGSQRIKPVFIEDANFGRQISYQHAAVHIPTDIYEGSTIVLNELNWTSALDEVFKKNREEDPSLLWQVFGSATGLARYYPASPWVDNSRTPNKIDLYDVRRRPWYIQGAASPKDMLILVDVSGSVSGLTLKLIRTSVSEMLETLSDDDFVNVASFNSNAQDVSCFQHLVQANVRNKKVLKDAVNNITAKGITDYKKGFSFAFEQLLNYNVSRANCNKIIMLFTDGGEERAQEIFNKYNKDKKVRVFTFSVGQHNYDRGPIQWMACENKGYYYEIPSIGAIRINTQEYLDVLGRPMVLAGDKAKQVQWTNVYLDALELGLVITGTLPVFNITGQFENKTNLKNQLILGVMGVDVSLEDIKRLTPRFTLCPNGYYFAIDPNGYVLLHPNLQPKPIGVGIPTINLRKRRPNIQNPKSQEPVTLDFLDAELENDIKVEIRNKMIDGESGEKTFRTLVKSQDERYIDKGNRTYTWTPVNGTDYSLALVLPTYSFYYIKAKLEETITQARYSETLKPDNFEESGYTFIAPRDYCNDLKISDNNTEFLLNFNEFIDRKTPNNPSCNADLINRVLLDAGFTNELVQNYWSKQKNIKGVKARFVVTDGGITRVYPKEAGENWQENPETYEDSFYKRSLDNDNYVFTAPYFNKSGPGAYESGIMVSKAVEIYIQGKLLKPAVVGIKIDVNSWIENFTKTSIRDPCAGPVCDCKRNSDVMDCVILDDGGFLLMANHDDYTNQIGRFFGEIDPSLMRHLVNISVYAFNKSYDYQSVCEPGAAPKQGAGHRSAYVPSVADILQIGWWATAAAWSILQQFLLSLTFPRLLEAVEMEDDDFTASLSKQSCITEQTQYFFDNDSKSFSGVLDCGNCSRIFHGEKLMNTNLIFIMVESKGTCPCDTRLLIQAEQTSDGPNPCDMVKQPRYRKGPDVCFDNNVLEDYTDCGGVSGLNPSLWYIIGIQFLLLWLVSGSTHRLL

| SMILES | Ki [1] | Ki | further results |
| --- | --- | --- | --- |
| CNCCC(Oc1cccc(CN2C[C@@H](C)N[C@@H](C)C2)c1)c1cccs1 (stereo partly drawn) [Example 1, 3-(3-((3,5-Dimethylpiperazin-1-yl)methyl)phenoxy)-N-methyl-3-(thiophen-2-yl)propan-1-amine] | 500 to 3000 nM | – | – |
| CNCCC(Oc1cccc(CN2CCC(c3ccccc3)(N(C)C)CC2)c1)c1cccs1 (stereo not drawn) [Example 2, N,N-dimethyl-1-(3-(3-(methylamino)-1-(thiophen-2-yl)propoxy)benzyl)-4-phenylpiperidin-4-amine] | – | 100 to 500 nM | – |
| CNCCC(Oc1cccc(CN2CCC(c3cccc(O)c3)CC2)c1)c1cccs1 (stereo not drawn) [Example 3, 3-(1-(3-(3-(Methylamino)-1-(thiophen-2-yl)propoxy)benzyl)piperidin-4-yl)phenol] | – | 100 to 500 nM | – |
| CNCCC(Oc1cccc(CN2CCC(c3cccc(O)c3)(N(C)C)CC2)c1)c1cccs1 (stereo not drawn) [Example 5, 3-(4-(Dimethylamino)-1-(3-(3-(methylamino)-1-(thiophen-2-yl)propoxy)benzyl)piperidin-4-yl)phenol] | – | 100 to 500 nM | – |
| CNCCC(Oc1cccc(CN2CCNCC2)c1)c1cccs1 (stereo not drawn) [Example 6, N-methyl-3-(3-(piperazin-1-ylmethyl)phenoxy)-3-(thiophen-2-yl)propan-1-amine] | 500 to 3000 nM | – | – |
| CNCCC(Oc1cccc(C(=O)N2CCC(c3ccccc3)(N(C)C)CC2)c1)c1cccs1 (stereo not drawn) [Example 7, (4-(Dimethylamino)-4-phenylpiperidin-1-yl)(3-(3-(methylamino)-1-(thiophen-2-yl)propoxy)phenyl)methanone] | – | – | Ki [2]: 500 to 3000 nM; Ki [3]: 500 to 3000 nM |
| CNCCC(Oc1cccc(C(=O)N2CCCCC2)c1)c1ccccc1 (stereo not drawn) [Example 8, (3-(3-(Methylamino)-1-phenylpropoxy)phenyl)(piperidin-1-yl)methanone] | > 3000 nM | – | – |
| CNCCC(Oc1cccc(C(=O)N2CCN(C)CC2)c1)c1ccccc1 (stereo not drawn) [Example 9, (3-(3-(Methylamino)-1-phenylpropoxy)phenyl)(4-methylpiperazin-1-yl)methanone] | > 3000 nM | – | – |
| CNCCC(Oc1cccc(C(=O)N2CCOCC2)c1)c1ccccc1 (stereo not drawn) [Example 10, (3-(3-(Methylamino)-1-phenylpropoxy)phenyl)(morpholino)methanone] | > 3000 nM | – | – |
| CNCCC(Oc1cccc(C(=O)N2CCN(C)CC2)c1)c1cccs1 (stereo not drawn) [Example 11, (3-(3-(Methylamino)-1-(thiophen-2-yl)propoxy)phenyl)(4-methylpiperazin-1-yl)methanone] | > 3000 nM | – | – |
| CC[C@]1(N2CCN(CCc3cccc(O[C@H](CCNC)c4ccccc4)c3)CC2)CCOC(C)(C)C1 [Example 12a, (R)-3-(3-(2-(4 ((S)-4-ethyl-2,2-dimethyltetrahydro-2H-pyran-4-yl)piperazin-1-yl)ethyl)phenoxy)-N-methyl-3-phenylpropan-1-amine] | 500 to 3000 nM | – | – |
| CC[C@@]1(N2CCN(CCc3cccc(O[C@H](CCNC)c4ccccc4)c3)CC2)CCOC(C)(C)C1 [Example 12b, (R)-3-(3-(2-(4-((R)-4-ethyl-2,2-dimethyltetrahydro-2H-pyran-4-yl)piperazin-1-yl)ethyl)phenoxy)-N-methyl-3-phenylpropan-1-amine] | 500 to 3000 nM | – | – |
| CNCCC(Oc1cccc(-n2nc(C)cc2C)c1)c1ccccc1 (stereo not drawn) [Example 13] | > 3000 nM | – | – |
| CNCC[C@H](Oc1cccc(CN2CCC(c3cccc(O)c3)(N(C)C)CC2)c1)c1cccs1 [Example 14, (S)-3-(4-(dimethylamino)-1-(3-(3-(methylamino)-1-(thiophen-2-yl)propoxy)benzyl)piperidin-4-yl)phenol] | – | 100 to 500 nM | – |
| CNCC[C@H](Oc1cccc(CN2CCC(c3ccccc3)(N(C)C)CC2)c1)c1cccs1 [Example 15, (S)-N,N-dimethyl-1-(3-(3-(methylamino)-1-(thiophen-2-yl)propoxy)benzyl)-4-phenylpiperidin-4-amine] | – | 500 to 3000 nM | – |
| CNCC[C@@H](Oc1cccc(CN2CCC(c3ccccc3)(N(C)C)CC2)c1)c1cccs1 [Example 16, (R)-N,N-dimethyl-1-(3-(3-(methylamino)-1-(thiophen-2-yl)propoxy)benzyl)-4-phenylpiperidin-4-amine] | – | 500 to 3000 nM | – |
| CNCC[C@@H](Oc1cccc(CN2CCC(c3cccc(O)c3)(N(C)C)CC2)c1)c1cccs1 [Example 17, (R)-3-(4-(dimethylamino)-1-(3-(3-(methylamino)-1-(thiophen-2-yl)propoxy)benzyl)piperidin-4-yl)phenol] | – | 100 to 500 nM | – |
| CNCC[C@H](Oc1cccc(CN2CCN([C@]3(C(=O)c4ccccn4)CCOC(C)(C)C3)CC2)c1)c1cccs1 [Example 18, ((R)-2,2-dimethyl-4-(4-(3-((S)-3-(methylamino)-1-(thiophen-2-yl)propoxy)benzyl)piperazin-1-yl)tetrahyrdro-2H-pyran-4-yl)(pyridin-2-yl)methanone] | > 3000 nM | – | – |
| CNCC[C@H](Oc1cccc(CN2CCN([C@@]3(C(=O)c4ccccn4)CCOC(C)(C)C3)CC2)c1)c1cccs1 [Example 19, ((S)-2,2-dimethyl-4-(4-(3-((S)-3-(methylamino)-1-(thiophen-2-yl)propoxy)benzyl)piperazin-1-yl)tetrahydro-2H-pyran-4-yl)(pyridin-2-yl)methanone] | > 3000 nM | – | – |
| CNCCC(OCc1cccc(CN2CCC(c3ccccc3)(N(C)C)CC2)c1)c1cccs1 (stereo not drawn) [Example 20, N,N-dimethyl-1-(3-((3-(methylamino)-1-(thiophen-2-yl)propoxy)methyl)benzyl)-4-phenylpiperidin-4-amine] | – | – | Ki [2]: 500 to 3000 nM; Ki [3]: 500 to 3000 nM |
| CNCC[C@H](OCc1cccc(CN2CCC(c3ccccc3)(N(C)C)CC2)c1)c1cccs1 [Example 21, (S)-N,N-dimethyl-1-(3-((3-(methylamino)-1-(thiophen-2-yl)propoxy)methyl)benzyl)-4-phenylpiperidin-4-amine] | – | – | Ki [2]: > 3000 nM; Ki [3]: > 3000 nM |
| CNCC[C@@H](OCc1cccc(CN2CCC(c3ccccc3)(N(C)C)CC2)c1)c1cccs1 [Example 22, (R)-N,N-dimethyl-1-(3-((3-(methylamino)-1-(thiophen-2-yl)propoxy)methyl)benzyl)-4-phenylpiperidin-4-amine] | – | – | Ki [2]: 500 to 3000 nM; Ki [3]: 500 to 3000 nM |
| CNCC[C@H](OCc1cccc(CN2CCC(c3cccc(O)c3)(N(C)C)CC2)c1)c1cccs1 [Example 23, (S)-3-(4-(dimethylamino)-1-(3-((3-(methylamino)-1-(thiophen-2-yl)propoxy)methyl)benzyl)piperidin-4-yl)phenol] | – | > 3000 nM | – |
| CNCC[C@@H](OCc1cccc(CN2CCC(c3cccc(O)c3)(N(C)C)CC2)c1)c1cccs1 [Example 24, (R)-3-(4-(dimethylamino)-1-(3-((3-(methylamino)-1-(thiophen-2-yl)propoxy)methyl)benzyl)piperidin-4-yl)phenol] | – | 500 to 3000 nM | – |
| CNCC[C@@H](OCc1cccc(CN2CCN([C@@]3(C(=O)c4ccccn4)CCOC(C)(C)C3)CC2)c1)c1ccccc1 [Example 28, ((S)-2,2-dimethyl-4-(4-(3-(((R)-3-(methylamino)-1-phenylpropoxy)methyl)benzyl)piperazin-1-yl)tetrahydro-2H-pyran-4-yl)(pyridin-2-yl)methanone] | 500 to 3000 nM | – | – |
| CNCC[C@@H](OCc1cccc(CN2CCN([C@]3(C(=O)c4ccccn4)CCOC(C)(C)C3)CC2)c1)c1ccccc1 [Example 29, ((R)-2,2-dimethyl-4-(4-(3-(((R)-3-(methylamino)-1-phenylpropoxy)methyl)benzyl)piperazin-1-yl)tetrahydro-2H-pyran-4-yl)(pyridin-2-yl)methanone] | 500 to 3000 nM | – | – |
